Measured values from patent US12091406B2, “Lysine acetyltransferase 6A (KAT6A) inhibitors and uses thereof” (Insilico Medicine IP Limited, priority 2021, dated 2024).

Assays:
[1] = Kinetic solubility in 50 mM phosphate buffer (pH 7.4); format: physicochemical; settings: comparison in words, data of Table 3
Experimental: 10 μL of 10 mM in DMSO of test and control compounds was added into lower chambers of whatman miniuniprep vials, respectively. 490 μL of 50 mM PB (pH 7.4) was added into lower chambers of the whatman miniuniprep vials, respectively. The solubility samples were vortexted for at least 2 minutes. The miniuniprep vials were shaken on a shaker for 24 hours at room temperature at the speed of 800 rpm and then centrifuged for 20 minutes (eg. 4000 rpm). The miniunipreps were compressed to prepare the filtrates for injection into HPLC system to calculate the concentration with standard curve.

[2] = test system: Caco-2 cells; assay: Permeability in Caco-2 Assay; format: in vitro ADME; settings: comparison in words, data of Table 4
Experimental: Permeability of test compounds was determined in Caco-2 Assay. Caco-2 cells purchased from ATCC were seeded onto […] (PET) in 96-well Corning Insert plates at 1×10^5 cells/cm2, and refreshed medium every 4˜5 days until to the 21st to 28th day for confluent cell monolayer formation. The transport buffer in the study was HBSS with 10.0 mM HEPES at pH 7.40±0.05. Test compound was tested at 2.00 μM bi-directionally in duplicate. Digoxin was tested at 10.0 μM bi-directionally in duplicate, while nadolol and metoprolol were tested at 2.00 μM in A to B direction in duplicate. Final DMSO concentration was adjusted to less than 1%. The plate was incubated for 2 hours in CO2 incubator at 37±1° C., with 5% CO2 at saturated humidity without shaking. And all samples after mixed with acetonitrile containing internal standard were centrifuged at 3200×g for 10 min. For nadolol and metoprolol, 200 μL supernatant solution was diluted with 600 μL ultra-pure water for LC-MS/MS analysis. For digoxin and test compounds, 200 μL supernatant solution was diluted with 200 μL ultra-pure water for LC-MS/MS analysis. Concentrations of test and control compounds in starting solution, donor solution, and receiver solution were quantified by LC-MS/MS methodologies, using peak area ratio of analyte/internal standard. […]

- kinetic solubility compared with otherwise identical compound having X as carbon [1]: improved kinetic solubility
- permeability compared with reference compound [2]: improved permeability
Compound: COc1cccc(OC)c1S(=O)(=O)Nc1noc2cc(Oc3nccs3)c3c(c12)OCCC3 [Compound 35, 2,6-dimethoxy-N-(5-(thiazol-2-yloxy)-3,4-dihydro-2H-chromeno[8,7-d]isoxazol-9-yl)benzenesulfonamide]
